{"source": "patent US6387388B1", "about": "“Pesticidal formulation” (Merck & Co., Inc., priority 1995, dated 2002)", "key": {"[1]": {"system": "tomato fruitworm (Helicoverpa zea)", "test": "Field efficacy study, weekly foliar sprays on tomato", "assay_type": "in vivo", "from_the_text": "‘Roma’ tomato transplants were planted in the field on June 10. Each plot was one row (5 ft centers) by 20 feet (=0.0022957 acre). Plots were separated within rows by at least 6 feet of unplanted ground and across rows by 24 feet. A single row of sweet corn (‘Silver Queen’) was planted mid-way between rows. Weeds are allowed to grow in the ground between the tomato and sweet corn rows, but were kept mowed. Weeds were controlled within tomato rows by a single application of Sencor 75 DF applied as a directed spray at the rate of 0.5 lb a.i./acre on June 20. Foliar applications of Dithane M45 at 1.5 lb a.i./acre were made every 5 days beginning July 1 and continuing through harvest for control of foliar diseases. In addition, calcium nitrate at 4 lb/acre was applied on July 10, 17, 24 and 31 for control of blossom-end rot. All insecticide treatments were applied as foliar sprays on July 23, 30, August 6, and 13. Applications were made using a CO2-powered, backpack sprayer calibrated to deliver 55 gallons of spray per acre at 42 psi. […]\nThe experimental treatments were replicated 4 times in a randomized complete block experimental design. The incidence of fruitworm damage to the fruit was determined in each plot on August 11, when the first fruit reached market maturity, and again on August 16. […]"}, "eye of a rabbit": {"system": "eye of a rabbit", "test": "Neat emamectin benzoate, acute ocular irritation study in rabbits", "assay_type": "in vivo, albino rabbits (New Zealand white)", "protocol": "Three male and three female albino rabbits (New Zealand white) 25 to 26 weeks of age and weighing 3.23 to 3.66 kg was used in this study. The test compound was ground into a fine powder and a volume of 0.1 cc (approximately 28 mg) was placed in the conjunctival sac of the left eye of each rabbit. Immediately after administration, the eyelids of the treated eye were held together for one second to prevent loss of material and released. The right eye was used as an untreated control.\nOcular examinations were made recorded at 1, 24, 48 and 72 hours post-instillation in all rabbits and were scored by the Draize Method (J. Pharmacol. Exp. Therap. 82:377-390 (1944)). Because of severe ocular reactions, three rabbits were euthanized following the 72-hour reading. Scores were recorded for the three remaining rabbits once daily through 14 days post-instillation except on weekends."}, "[2]": {"conditions": "soluble in 1 liter of water; cited from earlier work"}}, "note": "Entries after “also recorded” stand apart in the source; their conditions may differ.", "data": [{"molecule": "CC1(C)[C@H](C(=O)O[C@H](C#N)c2cccc(Oc3ccccc3)c2)[C@@H]1/C=C(\\Cl)C(F)(F)F", "note": "(racemic) [lambda-cyhalothrin]", "values": [{"measurement": "overall mean percentage of damaged fruit", "setting": "[1]; foliar", "result": 1.0, "unit": "%"}]}, {"molecule": "benzoate salt of 4″-deoxy-4″-epi-methylamino avermectin B1a/B1b [emamectin benzoate]", "values": [{"measurement": "ocular irritation rating", "setting": "eye of a rabbit; 0.1 cc (approximately 28 mg) fine powder in conjunctival sac, six rabbits, listed as neat emamectin benzoate", "result": "severely irritating; also recorded: severe, irreversible eye irritant"}, {"measurement": "ocular reactions in the three rabbits euthanized early, through 72 hours", "setting": "eye of a rabbit; approximately 28 mg in conjunctival sac", "result": "chemosis became severe"}, {"measurement": "ocular reactions at one hour", "setting": "eye of a rabbit; approximately 28 mg in conjunctival sac, six rabbits, listed as neat emamectin benzoate", "result": "the eyes of four rabbits had congestion of the iris; also recorded: corneal anesthesia and conjunctival irritation; also recorded: moderate redness, slight or moderate chemosis and severe colorless discharge"}, {"measurement": "ocular reactions at 24 hours", "setting": "eye of a rabbit; approximately 28 mg in conjunctival sac, listed as neat emamectin benzoate", "result": "an additional rabbit had congestion of the iris; also recorded: very slight corneal opacity covering less than ¼ of the corneal surface; also recorded: corneal anesthesia was still present, redness was severe, chemosis was never more than moderate"}, {"measurement": "body weight loss", "setting": "eye of a rabbit; rabbits euthanized early", "result": "less than 7%"}, {"measurement": "corneal anesthesia lasted through", "setting": "eye of a rabbit; two of the three remaining rabbits", "result": 72, "unit": "h"}]}, {"molecule": "COP(=O)(NC(C)=O)SC", "note": "(stereo not drawn) [acephate]", "values": [{"measurement": "amount soluble in water", "setting": "[2]", "result": 650, "unit": "g"}]}, {"molecule": "CC(C)[C@H](C(=O)O[C@H](C#N)c1cccc(Oc2ccccc2)c1)c1ccc(Cl)cc1", "note": "[esfenvalerate]", "values": [{"measurement": "overall mean percentage of damaged fruit", "setting": "[1]; tomato, Asana XL 0.66 EC at 0.036 lb active ingredient per acre, applied weekly, untreated control 18.5%", "result": 0.0, "unit": "%"}]}]}
